# From patent US11992494B2, “Cyclopentathiophene carboxamide derivatives as platelet activating factor receptor antagonists” (Boehringer Ingelheim International GmbH, priority 2021, dated 2024)
# Tested on: not listed separately
# Assay: Evaluation of chemical stability (solution state stress conditions, HPLC)
# Type: physicochemical
# Conditions: 0.25 mg/ml, pH 1.2
# Protocol: Evaluation of Chemical Stability Within solution state stability studies the influence of temperature, pH and light exposure are analyzed. Stress conditions are applied in order to get a fast signal of possible chemical decomposition via hydrolytical, oxidative or photodegradative pathways. […] The stressed/stored samples are analysed by a stability indicative chiral or achiral HPLC-method, as appropriate. Degradation studies are used to simulate chemical stability of compounds in the acidic part of the gastrointestinal tract. The compounds of the invention show high chemical stability in acidic aqueous media (pH value ca. 1.2) what makes their application as medical drugs to treat human diseases less restricted and troublesome. […] Compound is dissolved in an HPLC vial in a mixture of acetonitrile/0.1 M aqueous HCl (ratio: 2:3; pH ca. 1.2) to get a concentration of approximately 0.25 mg/ml. The vial is then transferred into an HPLC autosampler system and maintained at the desired temperature of, e.g., 40° C. A first sample is taken and injected immediately into a standard HPLC system with a UV DAD detector. A further sample is injected after 24 hours. Amount of degraded compound is measured by determining the recovery rate of compound [%] for the 24 h injection using an HPLC standard gradient method. Therefore the peak area of the main peak for the first injection (AUt0) is determined and set as 100%. Peak area of the main peak is determined also for the 24 h injection (AU24 h) and expressed as fraction of (AU24 h)/(AUt0)[%]. Analogously, the amount of degraded compound is determined for stability examinations running for more than 1 day, e.g., for 3 days.
row,Structure (SMILES),Amount of degradation after 3 d at 40° C. in ACN/0.1M aq. HCl
1,"CCCN(CCC)C(=O)[C@@H]1Cc2sc3c(c2C1)C(c1ccccc1Cl)=NC1(CC1)c1nnc(C)n1-3 [Example 104, (13′S)-9′-(2-chlorophenyl)-3′-methyl-N, N-dipropyl-16′-thia-2′,4′,5′,8′-tetraazaspiro[cyclopropane-1,7′-tetracyclo[8.6.0.0^2,6.0^11,15]hexadecane]-1′(10′),3′,5′,8′,11′(15′)-pentaene-13′-carboxamide]",1.5%

# Same assay, conditions: 40° C., ACN/0.1M aq. HCl (pH ca. 1.2)
row,Structure (SMILES),Amount of degradation after 3 d at 40° C. in ACN/0.1M aq. HCl
1,Cc1nnc2n1-c1sc3c(c1C(c1ccccc1Cl)=NC21CC1)C[C@H](C(=O)N[C@@H]1CCC(F)(F)C1)C3 [Example 124],2.5%
2,Cc1nnc2n1-c1sc3c(c1C(c1ccccc1Cl)=NC21CC1)C[C@H](C(=O)N1CCOCC1)C3 [Example 114],4%

# Target: T1, PAFR (Homo sapiens, UniProt P25105)
# Assay: not given
# Conditions: literature values (Weber et al.; EP0368175A1); read-out: PAFR affinity (Ki); cited from earlier work
# Target sequence in this assay (P25105 whole entry, species assumed): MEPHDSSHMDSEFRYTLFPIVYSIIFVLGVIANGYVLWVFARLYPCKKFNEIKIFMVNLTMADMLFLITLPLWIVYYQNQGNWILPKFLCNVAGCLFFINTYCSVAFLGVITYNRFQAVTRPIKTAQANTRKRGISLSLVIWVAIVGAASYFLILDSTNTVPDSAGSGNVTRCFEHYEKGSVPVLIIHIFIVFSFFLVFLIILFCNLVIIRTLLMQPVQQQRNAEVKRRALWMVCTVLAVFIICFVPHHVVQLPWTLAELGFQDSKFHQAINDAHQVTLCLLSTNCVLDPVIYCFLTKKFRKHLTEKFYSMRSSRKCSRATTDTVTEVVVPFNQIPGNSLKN
row,Structure (SMILES),Ki
1,"Cc1nnc2n1-c1sc3c(c1C(c1ccccc1Cl)=NC2C)CC(C(=O)N1CCOCC1)C3 (single isomer, unassigned; (+)) [(+) 9dB]",3000 nM
2,"Cc1nnc2n1-c1sc3c(c1C(c1ccccc1Cl)=NC2)CC(C(=O)N1CCOCC1)C3 (single isomer, unassigned; (+)) [(+)-bepafant]",660 nM
3,"Cc1nnc2n1-c1sc3c(c1C(c1ccccc1Cl)=NC2C)CC(C(=O)N1CCOCC1)C3 (single isomer, unassigned; (-)) [(−) 9dA]",70 nM
4,"Cc1nnc2n1-c1sc3c(c1C(c1ccccc1Cl)=NC2C)CC(C(=O)N1CCOCC1)C3 (single isomer, unassigned; (-)) [(−) 9dB]",8 nM
5,"Cc1nnc2n1-c1sc3c(c1C(c1ccccc1Cl)=NC2C)CC(C(=O)N1CCOCC1)C3 (single isomer, unassigned; (+)) [(+) 9dA]",400 nM
6,Cc1nnc2n1-c1sc3c(c1C(c1ccccc1Cl)=NC2)CC(C(=O)N1CCOCC1)C3 (racemic) [WEB 2170 (bepafant) racemate],15 nM
7,"Cc1nnc2n1-c1sc3c(c1C(c1ccccc1Cl)=NC2)CC(C(=O)N1CCOCC1)C3 (single isomer, unassigned; (-)) [(−)-bepafant]",14 nM

# Same assay, conditions: see EP0368175A1; cited from earlier work
row,Structure (SMILES),binding to the PAFR of (−)-enantiomer relative to (+)-enantiomer
1,Cc1nnc2n1-c1sc(CCC(=O)N3CCOCC3)cc1C(c1ccccc1Cl)=NC2C (stereo not drawn) [example 1 of EP0368175A1 (−)-enantiomer],(−)-enantiomer 35 times stronger binding

# Target: T1, PAFR
# Assay: not given
# Conditions: PAFR binding, Miyazawa et al.; cited from earlier work
# Target sequence in this assay (P25105 whole entry, species assumed): as above
row,Structure (SMILES),IC50
1,"C#CCCOC(=O)N1CCc2c(sc3c2C(c2ccccc2Cl)=NC(C)c2nnc(C)n2-3)C1 (single isomer, unassigned) [compound 35 of Miyazawa et al. (−) isomer]",420 nM
2,"C#CCCOC(=O)N1CCc2c(sc3c2C(c2ccccc2Cl)=NC(C)c2nnc(C)n2-3)C1 (single isomer, unassigned) [compound 22 of Miyazawa et al. (+) isomer]",0.34 nM
3,C#CCCOC(=O)N1CCc2c(sc3c2C(c2ccccc2Cl)=NC(C)(C)c2nnc(C)n2-3)C1 [compound 23 of Miyazawa et al.],160 nM
4,C#CCCOC(=O)N1CCc2c(sc3c2C(c2ccccc2Cl)=NC(CC)(CC)c2nnc(C)n2-3)C1 [compound 25 of Miyazawa et al.],290 nM
5,C#CCCOC(=O)N1CCc2c(sc3c2C(c2ccccc2Cl)=NCc2nnc(C)n2-3)C1 [compound 18 of Miyazawa et al.],3.8 nM
6,"C#CCCOC(=O)N1CCc2c(sc3c2C(c2ccccc2Cl)=NC(C)c2nnc(C)n2-3)C1 (single isomer, unassigned) [compound 35 of Miyazawa et al. (+) isomer]",2.8 nM
7,C#CCCOC(=O)N1CCc2c(sc3c2C(c2ccccc2Cl)=NC(C)c2nnc(C)n2-3)C1 (racemic) [compound 22 of Miyazawa et al. racemate],1.5 nM
8,"C#CCCOC(=O)N1CCc2c(sc3c2C(c2ccccc2Cl)=NC(C)c2nnc(C)n2-3)C1 (single isomer, unassigned) [compound 22 of Miyazawa et al. (−) isomer]",82 nM
9,"Cc1nnc2n1-c1sc3c(c1C(c1ccccc1Cl)=NC2C)CCN(C(=O)OC(C)(C)C#N)C3 (single isomer, unassigned) [compound 34 of Miyazawa et al. (+) isomer]",3.1 nM
10,"Cc1nnc2n1-c1sc3c(c1C(c1ccccc1Cl)=NC2C)CCN(C(=O)OC(C)(C)C#N)C3 (single isomer, unassigned) [compound 34 of Miyazawa et al. (−) isomer]",500 nM
11,C#CCCOC(=O)N1CCc2c(sc3c2C(c2ccccc2Cl)=NC(CC)c2nnc(C)n2-3)C1 (racemic) [compound 24 of Miyazawa et al. racemate],22 nM

# Target: T1, PAFR
# Assay: cellular HTRF IP1 assay: inhibition of PAFR activation by PAF C-16 ligand (endpoint assay)
# Type: cell-based
# Design: expressed in transfected cells; host or cells: HEK293
# Conditions: HEK293 cells overexpressing human PAFR; PAF ligand 11 nM; Table 2
# Procedure, shortened: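 HEK293 cells overexpressing human PAFR were preincubated with compound (1% DMSO) 90 min at 37°C, then challenged with 11 nM PAF C-16 for 60 min in HBSS/20 mM HEPES pH 7.4/50 mM LiCl/0.1% BSA. IP1 accumulation read by HTRF (665/620 nm emission).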
# Target sequence in this assay (P25105 whole entry): as the sequence (P25105 whole entry, species assumed) above
row,Structure (SMILES),IC50
1,Cc1nnc2n1-c1sc3c(c1C(c1ccccc1Cl)=NC21CC1)C[C@H](C(=O)N[C@@H]1CCC(F)(F)C1)C3 [Example 124],2.4 nM
2,Cc1nnc2n1-c1sc3c(c1C(c1ccccc1Cl)=NC21CC1)C[C@H](C(=O)N1CCOCC1)C3 [Example 114],7.2 nM
3,"CCCN(CCC)C(=O)[C@@H]1Cc2sc3c(c2C1)C(c1ccccc1Cl)=NC1(CC1)c1nnc(C)n1-3 [Example 104, (13′S)-9′-(2-chlorophenyl)-3′-methyl-N, N-dipropyl-16′-thia-2′,4′,5′,8′-tetraazaspiro[cyclopropane-1,7′-tetracyclo[8.6.0.0^2,6.0^11,15]hexadecane]-1′(10′),3′,5′,8′,11′(15′)-pentaene-13′-carboxamide]",0.9 nM
4,Cc1nnc2n1-c1sc3c(c1C(c1ccccc1Cl)=NC21CC1)C[C@H](C(=O)NC1(c2cccc(F)c2)CC1)C3 [Example 56],1.1 nM
5,Cc1nnc2n1-c1sc3c(c1C(c1ccccc1Cl)=NC21CC1)C[C@H](C(=O)N1CCOC(C)(C)C1)C3 [Example 10],5.2 nM
6,CO[C@@H]1CCCCC1N(C)C(=O)[C@@H]1Cc2sc3c(c2C1)C(c1ccccc1Cl)=NC1(CC1)c1nnc(C)n1-3 (stereo partly shown) [Example 84],2.3 nM
7,Cc1nnc2n1-c1sc3c(c1C(c1ccccc1Cl)=NC21CC1)C[C@H](C(=O)NC1CCc2cnn(C)c2C1)C3 (stereo partly shown) [Example 54],6.6 nM
8,Cc1nnc2n1-c1sc3c(c1C(c1ccccc1Cl)=NC21CC1)C[C@H](C(=O)N[C@@H]1COCC(F)(F)C1)C3 [Example 110],4.3 nM
9,Cc1nnc2n1-c1sc3c(c1C(c1ccccc1Cl)=NC21CC1)C[C@H](C(=O)N[C@@H]1C[C@H]1c1ccccc1)C3 [Example 60],1.3 nM
10,Cc1nnc2n1-c1sc3c(c1C(c1ccccc1Cl)=NC21CC1)C[C@H](C(=O)NC1(C)CCC1)C3 [Example 38],1.6 nM
11,Cc1nnc2n1-c1sc3c(c1C(c1ccccc1Cl)=NC21CC1)C[C@H](C(=O)N(C)[C@H]1CC[C@H](O)CC1)C3 [Example 112],22 nM
12,"Cc1nnc2n1-c1sc3c(c1C(c1ccccc1Cl)=NC21CC1)C[C@H](C(=O)NC1(C(C)(C)O)CC1)C3 [Example 122, (13′S)-9′-(2-chlorophenyl)-N-[1-(2-hydroxy-propan-2-yl)cyclopropyl]-3′-methyl-16′-thia-2′,4′,5′,8′-tetraazaspiro[cyclopropane-1,7′-tetracyclo[8.6.0.0^2,6.0^11,15]hexadecane]-1′(10′),3′,5′,8′,11′(15′)-pentaene-13′-carboxamide]",37 nM
13,Cc1nnc2n1-c1sc3c(c1C(c1ccccc1Cl)=NC21CC1)C[C@H](C(=O)N[C@H]1COC[C@H]1C)C3 [Example 28],6.8 nM
14,Cc1nnc2n1-c1sc3c(c1C(c1ccccc1Cl)=NC21CC1)C[C@H](C(=O)NC1(c2ccccn2)CC1)C3 [Example 87],4.9 nM
15,Cc1nnc2n1-c1sc3c(c1C(c1ccccc1Cl)=NC21CC1)C[C@H](C(=O)N(C)[C@@H]1CCCC[C@@H]1O)C3 [Example 41],3.9 nM
16,"Cc1nnc2n1-c1sc3c(c1C(c1ccccc1Cl)=NC21CC1)C[C@H](C(=O)N1CCO[C@@H](C)C1)C3 [Example 106, (13′S)-9′-(2-chlorophenyl)-3′-methyl-13′-[(2S)-2-methylmorpholine-4-carbonyl]-16′-thia-2′,4′,5′,8′-tetraazaspiro[cyclopropane-1,7′-tetracyclo-[8.6.0.0^2,6.0^11,15]hexadecane}-1′(10′),3′,5′,8′,11′(15′)-pentaene]",7.5 nM
17,"Cc1nnc2n1-c1sc3c(c1C(c1ccccc1Cl)=NC21CC1)C[C@H](C(=O)NC12CC(C1)C2)C3 [Example 1, (13′S)—N-{bicyclo[1.1.1]pentan-1-yl}-9′-(2-chlorophenyl)-3′-methyl-16′-thia-2′,4′,5′,8′-tetraazaspiro[cyclopropane-1,7′-tetracyclo[8.6.0.0^2,6.0^11,15]hexadecane]-1′(10′),3′,5′,8′,11′(15′)-pentaene-13′-carboxamide]",1.3 nM

# Same assay, conditions: S-bepafant and its methylated derivatives in the above-mentioned assay
row,Structure (SMILES),IC50
1,"Cc1nnc2n1-c1sc3c(c1C(c1ccccc1Cl)=NC2)C[C@H](C(=O)N1CCOCC1)C3 [S-bepafant, reference compound]",73.5 nM

# Same assay, conditions: dedicated head-to-head comparison assay run: cyclopropylene vs di-methyl / cyclobutylene analogues
row,Structure (SMILES),IC50
1,Cc1nnc2n1-c1sc3c(c1C(c1ccccc1Cl)=NC21CC1)C[C@H](C(=O)N[C@@H]1CCC(F)(F)C1)C3 [Example 124],2.6 nM
2,Cc1nnc2n1-c1sc3c(c1C(c1ccccc1Cl)=NC21CC1)C[C@H](C(=O)N1CCOCC1)C3 [Example 114],6.6 nM
3,Cc1nnc2n1-c1sc3c(c1C(c1ccccc1Cl)=NC2(C)C)C[C@H](C(=O)N(C)[C@H]1CC[C@H](O)CC1)C3 [reference compound],87 nM
4,Cc1nnc2n1-c1sc3c(c1C(c1ccccc1Cl)=NC21CC1)C[C@H](C(=O)N(C)[C@H]1CC[C@H](O)CC1)C3 [Example 112],11.9 nM
5,CCCNC(=O)[C@@H]1Cc2sc3c(c2C1)C(c1ccccc1Cl)=NC(C)(C)c1nnc(C)n1-3 [reference compound],29 nM
6,Cc1nnc2n1-c1sc3c(c1C(c1ccccc1Cl)=NC21CC1)C[C@H](C(=O)NC1(c2ccccn2)CC1)C3 [Example 87],5.6 nM
